According to PubChem BioAssay (NCI):
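Each compound was tested at five concentrations against cells in 96-well plates for 48 hours. At the GI50, growth is halved. TGI: total growth inhibition.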

Columns and labels:
Test in all cases: NCI anticancer screen, dose series, 48 h
SN12C renal = tested on: SN12C renal
T-47D breast = tested on: T-47D breast
HOP-62 NSCLC = tested on: HOP-62 NSCLC
OVCAR-4 ovarian = tested on: OVCAR-4 ovarian
PC-3 prostate = tested on: PC-3 prostate
U251 CNS = tested on: U251 CNS
OVCAR-3 ovarian = tested on: OVCAR-3 ovarian
A549 NSCLC = tested on: A549 NSCLC
DU-145 prostate = tested on: DU-145 prostate
MOLT-4 leukemia = tested on: MOLT-4 leukemia
UACC-257 melanoma = tested on: UACC-257 melanoma
EKVX NSCLC = tested on: EKVX NSCLC
RXF 393 renal = tested on: RXF 393 renal
TK-10 renal = tested on: TK-10 renal
COLO 205 colon = tested on: COLO 205 colon
NCI-H23 lung = tested on: NCI-H23 lung
SK-MEL-28 melanoma = tested on: SK-MEL-28 melanoma
SK-MEL-5 melanoma = tested on: SK-MEL-5 melanoma
HCC-2998 colon = tested on: HCC-2998 colon
OVCAR-5 ovarian = tested on: OVCAR-5 ovarian
CAKI-1 renal = tested on: CAKI-1 renal
K-562 leukemia = tested on: K-562 leukemia
HCT-116 colon = tested on: HCT-116 colon
HL-60(TB) leukemia = tested on: HL-60(TB) leukemia
IGROV1 ovarian = tested on: IGROV1 ovarian
NCI-H460 lung = tested on: NCI-H460 lung
NCI-H522 lung = tested on: NCI-H522 lung
SNB-19 CNS = tested on: SNB-19 CNS
HOP-92 NSCLC = tested on: HOP-92 NSCLC

With CCCCCCOc1ccc(/C=N/NC(N)=S)cc1 the GI50 (SN12C renal) was 2.16 µM, the TGI (SN12C renal) was 9.9 µM and the GI50 (T-47D breast) was 2.39 µM. For the same compound, the TGI (T-47D breast) was 18.2 µM, the GI50 (HOP-62 NSCLC) was 60.1 µM and the TGI (HOP-62 NSCLC) was > 100 µM. The GI50 (OVCAR-4 ovarian) was 3.12 µM, the TGI (OVCAR-4 ovarian) was 35 µM and the GI50 (PC-3 prostate) was 4.07 µM. The TGI (PC-3 prostate) was > 100 µM, the GI50 (U251 CNS) was 7.96 µM and the TGI (U251 CNS) was > 100 µM. It also gave a GI50 (OVCAR-3 ovarian) of 1.97 µM, a TGI (OVCAR-3 ovarian) of 6.6 µM and a GI50 (A549 NSCLC) of 31.8 µM. The TGI (A549 NSCLC) was > 100 µM, the GI50 (DU-145 prostate) was 7.26 µM and the TGI (DU-145 prostate) was > 100 µM. It also gave a GI50 (MOLT-4 leukemia) of 0.432 µM, a TGI (MOLT-4 leukemia) of 5.26 µM and a GI50 (UACC-257 melanoma) of 3.5 µM. The TGI (UACC-257 melanoma) was 27.8 µM, the GI50 (EKVX NSCLC) was 2.83 µM and the TGI (EKVX NSCLC) was > 53.1 µM. The GI50 (RXF 393 renal) was 1.44 µM, the TGI (RXF 393 renal) was 3.61 µM and the GI50 (TK-10 renal) was 5.54 µM. It also gave a TGI (TK-10 renal) of 30.1 µM, a GI50 (COLO 205 colon) of 7.21 µM and a TGI (COLO 205 colon) of 48.5 µM. The GI50 (NCI-H23 lung) was 4.3 µM, the TGI (NCI-H23 lung) was > 100 µM and the GI50 (SK-MEL-28 melanoma) was 10.9 µM. It also gave a TGI (SK-MEL-28 melanoma) of 38.4 µM, a GI50 (SK-MEL-5 melanoma) of 7.52 µM and a TGI (SK-MEL-5 melanoma) of 20.8 µM. For the same compound, the GI50 (HCC-2998 colon) was 6.45 µM, the TGI (HCC-2998 colon) was > 100 µM and the GI50 (OVCAR-5 ovarian) was 12.8 µM. For the same compound, the TGI (OVCAR-5 ovarian) was > 100 µM, the GI50 (CAKI-1 renal) was 1.57 µM and the TGI (CAKI-1 renal) was 5.71 µM. For the same compound, the GI50 (K-562 leukemia) was 1.72 µM, the TGI (K-562 leukemia) was > 26.8 µM and the GI50 (HCT-116 colon) was 3.31 µM. It also gave a TGI (HCT-116 colon) of 16.1 µM, a GI50 (HL-60(TB) leukemia) of 1.15 µM and a TGI (HL-60(TB) leukemia) of 17.7 µM. For the same compound, the GI50 (IGROV1 ovarian) was 0.922 µM, the TGI (IGROV1 ovarian) was 5.36 µM and the GI50 (NCI-H460 lung) was 10.2 µM. The TGI (NCI-H460 lung) was > 100 µM, the GI50 (NCI-H522 lung) was 0.421 µM and the TGI (NCI-H522 lung) was 1.76 µM. The GI50 (SNB-19 CNS) was 12.3 µM, the TGI (SNB-19 CNS) was > 100 µM and the GI50 (HOP-92 NSCLC) was 2.39 µM.
